# In US8524898B2, “Proton acceptor iminium/carbocation-type coupling agents” (Luxembourg Bio Technologies Ltd., priority 2007, dated 2013):
# Where a name gives a salt, the structure may show the parent alone.
# Assay: Maximal solubility of coupling agents in DMF
# Conditions: calculated molarity in DMF
row,Compound,Molarity
1,"1-((dimethylimino)(morpholino)methyl)3-H-6-chlorobenzo[1,2,3]triazolo-1-ium-3-olate hexafluorophosphate [6-Cl-HDMB]",1.0
2,"1-((dimethylimino)(morpholino)methyl)3-H-6-trifluoromethylbenzo[1,2,3]-triazolo-1-ium-3-olate hexafluorophosphate [6-CF3HDMB]",1.02

# Same assay, conditions: maximal solubility; mass of agent per volume of DMF
row,Compound,Wt/ml
1,"1-((dimethylimino)(morpholino)methyl)3-H-6-chlorobenzo[1,2,3]triazolo-1-ium-3-olate hexafluorophosphate [6-Cl-HDMB]",0.456
2,"1-((dimethylimino)(morpholino)methyl)3-H-6-trifluoromethylbenzo[1,2,3]-triazolo-1-ium-3-olate hexafluorophosphate [6-CF3HDMB]",0.475
3,"1-((dimethylimino)(morpholino)methyl)3-H-[1,2,3]triazolo[4,5-b]pyridine-1-3-olate hexafluorophosphate [HDMA]",0.285

# Assay: not given
# Conditions: not given
row,melting point,Compound
1,192 to 193 °C,CN(C)C(n1n[n+]([O-])c2ccc(Cl)cc21)=[N+]1CCCC1 (as salt: phosphate)
2,145 to 146 °C (dec.),O=c1ccccn1OC(N1CCOCC1)=[N+]1CCCC1 (as salt: phosphate)
3,169 to 171 °C,CN(C)C(O/N=C(\C#N)c1ccccn1)=[N+](C)C (as salt: phosphate)
4,118 to 119 °C,"C[N+](C)=C(ON=C(C#N)C#N)N1CCOCC1 (as salt: phosphate) [HDMODC, 1-[(1-(dicyanomethyleneaminooxy)-dimethylamino-morpholinomethylene)]methanaminium hexafluorophosphate]"
5,126 to 127 °C (dec.),"CCOC(=O)C(C#N)=NOC(N(C)C)=[N+]1CCCC1 (as salt: phosphate) [HDmPyOCC, 1-[(1-(Cyano-2-ethoxy-2-oxoethylideneaminooxy)-dimethylamino-pyrrolodinomethylene)]methanaminium hexafluorophosphate]"
6,146 to 147 °C (dec.),"CN(C)C(ON=C(C#N)C#N)=[N+]1CCCC1 (as salt: phosphate) [HDmPyODC, 1-[(1-(dicyanomethylideneaminooxy)-dimethylamino-pyrrolodinomethylene)]methanaminium hexafluorophosphate]"
7,206 to 208 °C (dec.),"[O-][n+]1nn(C(N2CCCC2)N2CCOCC2)c2cccnc21 (centres unmarked) (as salt: phosphate) [HMPyA, 1-(morpholino(pyrrolidinium-1-ylidene)methyl)-1H-[1,2,3]triazolo[4,5-I]pyridine 3-oxide hexafluorophosphate]"
8,171 to 172 °C,"CCOC(=O)/C(C#N)=N/OC(N1CCOCC1)=[N+]1CCCC1 (as salt: phosphate) [HMPyOCC, 1-((1-cyano-2-ethoxy-2-oxoethylideneaminooxy)(morpholino)methylene) pyrrolidinium hexafluorophosphate]"
9,135 to 137 °C (dec.),"CCOC(=O)/C(C#N)=N/OC(N(C)C)N(C)C (as salt: phosphate) [HTOCC, O-[Cyano(ethoxycarbonyl)methylidene)amino]-1,1,3,3-tetramethyluronium Hexafluorophosphate]"
